How the values were obtained:
IL-5 production = test: In vitro inhibition of IL-5 production in human blood; type: cell-based; settings: test dose 1×10^−6 M; human whole blood stimulated with phytohemagglutinin, 48 hours, ELISA
Protocol: In Vitro Inhibition of IL-5 Production in Human Blood
Human Whole Blood Stimulation
Peripheral blood from healthy male donors was drawn into heparinized syringes (12.5 U heparin/ml). Blood samples were three-fold diluted in RMPI 1640 medium (Life Technologies, Belgium) supplemented with 2 mM L-glutamine, 100 U/ml penicillin and 100 μg/ml streptomycin, and 300 μl fractions were distributed in 24-well multidisc plates. Blood samples were preincubated (60 minutes at 37° C.) in a humidified 6% CO2-atmosphere with 100 μl of drug solvent (final concentration 0.02% dimethylsulfoxide in RPMI 1640) or with 100 μl of an appropriate dose of test compound before being stimulated by the addition of 100 μl of phytohemagglutinin HA17 (Murex, UK) at a final concentration of 2 μg/ml. After 48 hours, cell-free supernatant fluids were collected by centrifugation and stored at −70° C. until tested for the presence of IL-5.
IL-5 measurements were conducted as described in Van Wauwe et al. (1996, Inflamm Res, 45, 357-363) on page 358 using ELISA.
Table 8 lists the percentage inhibition of IL-5 production (column “% inhibition”) at a test dose of 1×10^−6 M, or in case the percentage inhibition is marked with an “*” 1×10^−5 M, for the compounds of the present invention including compounds of formula (I) which have been disclosed in U.S. Pat. No. 4,631,278 (Ref. A) or U.S. Pat. No. 4,767,760 (Ref: B) as summarized in table 7.

Row | melting point | Structure (SMILES) | inhibition at 1 µM (IL-5 production)
1 |  | CON(C)C(=O)C(c1ccc(Cl)cc1)c1ccc(-n2ncc(=O)[nH]c2=O)cc1Cl (racemic) [1.6, (±)-2-chloro-α-(4-chlorophenyl)-N-methoxy-N-methyl-4-(4,5-dihydro-3,5-dioxo-1,2,4-triazin-2(3H)-yl)benzeneacetamide] | 49%
2 |  | CC(C#N)(c1ccc(Cl)c(C(F)(F)F)c1)c1c(Cl)cc(-n2ncc(=O)[nH]c2=O)cc1Cl (racemic) [1.7, (±)-2,6-dichloro-α-[4-chloro-3-(trifluoromethyl)phenyl]-4-(4,5-dihydro-3,5-dioxo-1,2,4-triazin-2(3H)-yl)-α-methylbenzeneacetonitrile] | 92%
3 |  | CC(C#N)(c1ccc(Cl)cc1)c1c(Cl)cc(-n2ncc(=O)[nH]c2=O)cc1Cl (racemic) [1.11, (±)-2,6-dichloro-α-(4-chlorophenyl)-4-(4,5-dihydro-3,5-dioxo-1,2,4-triazin-2(3H)-yl)-α-methylbenzeneacetonitrile] | 12%
4 |  | CNC(=O)C(C)(c1ccc(Cl)cc1)c1ccc(-n2ncc(=O)[nH]c2=O)cc1Cl (racemic) [1.14, (±)-2-chloro-α-(4-chlorophenyl)-4-(4,5-dihydro-3,5-dioxo-1,2,4-triazin-2(3H)-yl)-α,N-dimethylbenzeneacetamide] | 9%
5 |  | O=C(c1nc2ccccc2s1)C(c1ccc(Cl)cc1)c1ccc(-n2ncc(=O)[nH]c2=O)cc1Cl (racemic) [1.20, (±)-2-[4-[2-(2-benzothiazolyl)-1-(4-chlorophenyl)-2-oxoethyl]-3-chlorophenyl]-1,2,4-triazin-3,5(2H,4H)-dione] | 80%
6 |  | CC(C(N)=S)(c1ccc(Cl)cc1)c1ccc(-n2ncc(=O)[nH]c2=O)cc1Cl (racemic) [1.21, (±)-2-chloro-α-(4-chlorophenyl)-α-methyl-4-(4,5-dihydro-3,5-dioxo-1,2,4-triazin-2(3H)-yl)benzeneethanethioamide] | 33%
7 |  | CC(C#N)(c1ccc(Cl)c(C(F)(F)F)c1)c1cccc(-n2ncc(=O)[nH]c2=O)c1Cl (racemic) [1.36, (±)-4-chloro-α-[2-chloro-3-(4,5-dihydro-3,5-dioxo-1,2,4-triazin-2(3H)-yl)phenyl]-α-methyl-3-(trifluoromethyl)benzeneacetonitrile] | 44%
8 | 140 °C | CN(C)CCCC(C#N)(c1ccc(Cl)cc1)c1ccc(-n2ncc(=O)[nH]c2=O)cc1Cl (racemic) [1.58, (±)-2-chloro-α-(4-chlorophenyl)-4-(4,5-dihydro-3,5-dioxo-1,2,4-triazin-2(3H)-yl)-α-[3-(dimethylamino)propyl]-benzeneacetonitrile] | 28%
9 |  | CC(C#N)(c1ccc(Cl)c(C(F)(F)F)c1)c1cc(-n2ncc(=O)[nH]c2=O)ccc1Cl (stereo not shown) [1.35] | 33%
10 |  | N#CC(c1ccc(Cl)c(C(F)(F)F)c1)c1cc(-n2ncc(=O)[nH]c2=O)ccc1Cl (stereo not shown) [1.37] | 12%
11 | 206.3 °C | N#CC(c1ccc(Cl)cc1)c1ccc(-n2ncc(=O)[nH]c2=O)cc1 (stereo not drawn) [1.41, α-(4-chlorophenyl)-4-(4,5-dihydro-3,5-dioxo-1,2,4-triazin-2(3H)-yl) benzeneacetonitrile] | 13%
